{"source": "patent US20250388605A1", "about": "“HETEROBIFUNCTIONAL COMPOUNDS AND METHODS OF TREATING DISEASE” (Halda Therapeutics OpCo, Inc., priority 2022, published 2025)"}
{"system": "VCaP cells", "assay": "Cellular growth inhibition assay for VCaP cells, CellTiter-Glo", "type": "cell-based, human", "settings": "72 hours", "in_short": "(§1)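 GI50 values come from four-parameter curve fits of luminescence data normalized to a zero baseline. Compound, in medium with 0.5% DMSO, was added one day after plating and left for 72 h before CellTiter-Glo 2.0 addition.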", "units": {"GI50": "µM"}}
{"compound": "CCS(=O)(=O)Nc1ccc(Oc2cccc(N3CC(CC4CN(c5ncc(C(=O)N[C@H]6C(C)(C)[C@H](Oc7ccc(C#N)c(Cl)c7)C6(C)C)cn5)C4)C3)c2)c(-c2cn(C)c(=O)c3[nH]ccc23)c1", "note": "[Compound I-158]", "GI50": "< 0.5"}
{"compound": "CCS(=O)(=O)Nc1ccc(Oc2cccc(OC3CC(C4CCN(c5ncc(C(=O)N[C@H]6C(C)(C)[C@H](Oc7ccc(C#N)c(Cl)c7)C6(C)C)cn5)CC4)C3)c2)c(-c2cn(C)c(=O)c3[nH]ccc23)c1", "note": "(stereo partly shown) [Compound I-104]", "GI50": "< 0.5"}
{"compound": "Cn1cc(-c2cc(C(C)(C)O)ccc2Oc2ccc(N3CC4(C3)CN(c3ncc(C(=O)N[C@H]5C(C)(C)[C@H](Oc6ccc(C#N)c(Cl)c6)C5(C)C)cn3)CCO4)cc2)c2cc[nH]c2c1=O", "note": "[Compound I-212]", "GI50": "1.5 to 3"}
{"compound": "CN(CC1CCN(c2ncc(C(=O)N[C@H]3C(C)(C)[C@H](Oc4ccc(C#N)c(Cl)c4)C3(C)C)cn2)CC1)C1(c2ccc(Oc3ccc(C(C)(C)O)cc3-c3cn(C)c(=O)c4[nH]ccc34)cc2)COC1", "note": "[Compound I-255]", "GI50": "< 0.5"}
{"system": "VCaP cells", "assay": "Cellular growth inhibition assay for VCaP cells, CellTiter-Glo", "type": "cell-based, human", "settings": "Homo sapiens, 72 hours", "in_short": "as §1", "units": {"GI50": "µM"}}
{"compound": "Cn1cc(-c2cc(C(C)(C)O)ccc2Oc2ccc(CC3CCN(c4ncc(C(=O)N[C@H]5C(C)(C)[C@H](Oc6ccc(C#N)c(Cl)c6)C5(C)C)cn4)CC3)cc2)c2cc[nH]c2c1=O", "note": "[Compound I-201]", "GI50": "0.5 to 1.5"}
{"compound": "Cn1cc(-c2cc(C(C)(C)O)ccc2Oc2ccc(N3CC(CC4CCN(c5ncc(C(=O)N[C@H]6C(C)(C)[C@H](Oc7ccc(C#N)c(Cl)c7)C6(C)C)cn5)CC4)C3)cc2)c2cc[nH]c2c1=O", "note": "[Compound I-232]", "GI50": "0.5 to 1.5"}
{"compound": "CCS(=O)(=O)Nc1ccc(Oc2cccc(N3CC(N(C)C4CN(c5ncc(C(=O)N[C@H]6C(C)(C)[C@H](Oc7ccc(C#N)c(Cl)c7)C6(C)C)cn5)C4)C3)c2)c(-c2cn(C)c(=O)c3[nH]ccc23)c1", "note": "[Compound I-120]", "GI50": "< 0.5"}
{"compound": "CCS(=O)(=O)Nc1ccc(Oc2cccc(OCCOC3CCN(c4cnc(C(=O)N[C@H]5C(C)(C)[C@H](Oc6ccc(C#N)c(Cl)c6)C5(C)C)cn4)CC3)c2)c(-c2cn(C)c(=O)c3[nH]ccc23)c1", "note": "[Compound I-71, N-((1r, 3r)-3-(3-chloro-4-cyanophenoxy)-2,2,4,4-tetramethylcyclobutyl)-5-(4-(2-(3-(4-(ethylsulfonamido)-2-(6-methyl-7-oxo-6,7-dihydro-1H-pyrrolo[2,3-c]pyridin-4-yl)phenoxy)phenoxy)ethoxy)piperidin-1-yl)pyrazine-2-carboxamide]", "GI50": "< 0.5"}
{"compound": "Cn1cc(-c2cc(C(C)(C)O)ccc2Oc2cccc(N3CC4(CN(c5ncc(C(=O)N[C@H]6C(C)(C)[C@H](Oc7ccc(C#N)c(Cl)c7)C6(C)C)cn5)CCO4)C3)c2F)c2cc[nH]c2c1=O", "note": "[Compound I-216]", "GI50": "< 0.5"}
{"compound": "CC(C)N(C1CCN(c2ncc(C(=O)N[C@H]3C(C)(C)[C@H](Oc4ccc(C#N)c(Cl)c4)C3(C)C)cn2)CC1)C1CN(c2cccc(Oc3ccc(C(C)(C)O)cc3-c3cn(C)c(=O)c4[nH]ccc34)c2F)C1", "note": "[Compound I-221]", "GI50": "> 3"}
{"compound": "CCS(=O)(=O)c1ccc(Oc2ccc(OCC3CCN(c4ncc5c(n4)CN([C@H]4C(C)(C)[C@H](Cc6ccc(C#N)c(Cl)c6)C4(C)C)C5=O)CC3)cc2)c(-c2cn(C)c(=O)c3[nH]ccc23)c1", "note": "[Compound I-220]", "GI50": "> 3"}
{"compound": "CCS(=O)(=O)Nc1ccc(Oc2cccc(N3CC4(CN(CC5CCN(c6ncc(C(=O)N[C@H]7C(C)(C)[C@H](Oc8ccc(C#N)c(Cl)c8)C7(C)C)cn6)CC5)C4)C3)c2)c(-c2cn(C)c(=O)c3[nH]ccc23)c1", "note": "[Compound I-35, N-((1r, 3r)-3-(3-chloro-4-cyanophenoxy)-2,2,4,4-tetramethylcyclobutyl)-2-(4-((6-(3-(4-(ethylsulfonamido)-2-(6-methyl-7-oxo-6,7-dihydro-1H-pyrrolo[2,3-c]pyridin-4-yl)phenoxy)phenyl)-2,6-diazaspiro[3.3]heptan-2-yl)methyl)piperidin-1-yl)pyrimidine-5-carboxamide]", "GI50": "< 0.5"}
{"compound": "CCS(=O)(=O)Nc1ccc(Oc2cccc(OC3CCC4(CC3)CCN(c3ncc(C(=O)N[C@H]5C(C)(C)[C@H](Oc6ccc(C#N)c(Cl)c6)C5(C)C)cn3)CC4)c2)c(-c2cn(C)c(=O)c3[nH]ccc23)c1", "note": "[Compound I-45]", "GI50": "< 0.5"}
